Laboratory results published in patent US8952024B2, “Herbicidal pyrimidone derivatives” (E I du Pont de Nemours and Company, priority 2009, dated 2015).

Legend:
Assay type in all cases: in vivo
[1] = system: barnyardgrass (Echinochloa crus-galli); assay: Test A pre-/postemergence plant response
Method in brief: (§1)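 Injury scores (0, no effect; 100, complete control) come from visual comparison with untreated controls roughly ten days post-treatment. Test chemicals in a surfactant-containing non-phytotoxic solvent were applied as a directed soil spray preemergence and to one- to two-leaf seedlings postemergence.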

corn (Zea mays) = assay: Test A pre-/postemergence plant response
Method in brief: as §1

[2] = system: giant foxtail (Setaria faberii); assay: Test A pre-/postemergence plant response
Method in brief: as §1

[3] = system: large crabgrass (Digitaria sanguinalis); assay: Test A pre-/postemergence plant response
Method in brief: as §1

[4] = system: morningglory (Ipomoea spp.); assay: Test A pre-/postemergence plant response
Method in brief: as §1

[5] = system: pigweed (Amaranthus retroflexus); assay: Test A pre-/postemergence plant response
Method in brief: as §1

[6] = system: velvetleaf (Abutilon theophrasti); assay: Test A pre-/postemergence plant response
Method in brief: as §1

[7] = system: wheat (Triticum aestivum); assay: Test A pre-/postemergence plant response
Method in brief: as §1

[8] = system: barnyardgrass (Echinochloa crus-galli); assay: Test B flooded paddy test; details: for Plant response rating, Flood, Barnyardgrass: 250 g ai/ha, flooded paddy test, visual rating on 0 to 100 scale (0 no effect, 100 complete control) after 13 to 15 days; for Plant response rating, Barnyardgrass: Flood (flooded paddy test), 13 to 15 days; for Barnyardgrass plant response rating: Flood, 31 g ai/ha, scale 0 to 100 (0 no effect, 100 complete control)
Method in brief: (§2)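 Rice, umbrella sedge, ducksalad and barnyardgrass were grown to the 2-leaf stage, flooded to 3 cm, and compound was applied directly to the paddy water, with that depth kept throughout. After 13 to 15 days in the greenhouse, plants were visually rated against controls on a 0 (no effect) to 100 (complete control) scale.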

[9] = system: ducksalad (Heteranthera limosa); assay: Test B flooded paddy test; details: for Plant response rating, Flood, Ducksalad: 250 g ai/ha, flooded paddy test, visual rating on 0 to 100 scale (0 no effect, 100 complete control) after 13 to 15 days; for Plant response rating, Ducksalad: Flood (flooded paddy test), 13 to 15 days; for Ducksalad plant response rating: Flood, 31 g ai/ha, scale 0 to 100 (0 no effect, 100 complete control)
Method in brief: as §2

rice (Oryza sativa) = assay: Test B flooded paddy test; details: for Plant response rating, Flood, Rice: 250 g ai/ha, flooded paddy test, visual rating on 0 to 100 scale (0 no effect, 100 complete control) after 13 to 15 days; for Plant response rating, Rice: Flood (flooded paddy test), 13 to 15 days; for Rice plant response rating: Flood, 31 g ai/ha, scale 0 to 100 (0 no effect, 100 complete control)
Method in brief: as §2

[10] = system: umbrella sedge (Cyperus difformis); assay: Test B flooded paddy test; details: for Plant response rating, Flood, Sedge, Umbrella: 250 g ai/ha, flooded paddy test, visual rating on 0 to 100 scale (0 no effect, 100 complete control) after 13 to 15 days; for Plant response rating, Sedge, Umbrella: Flood (flooded paddy test), 13 to 15 days; for Sedge, Umbrella plant response rating: Flood, 31 g ai/ha, scale 0 to 100 (0 no effect, 100 complete control)
Method in brief: as §2

[11] = Postemergence, 125 g ai/ha, 0 to 100 scale where 0 is no effect and 100 is complete control
[12] = Postemergence, 500 g ai/ha, 0 to 100 scale, 0 = no effect, 100 = complete control, approx. ten days
[13] = Preemergence, 125 g ai/ha, 0 to 100 scale, 0 = no effect, 100 = complete control
[14] = Preemergence, 500 g ai/ha, visual injury, 0 to 100 scale (0 no effect, 100 complete control), approx. ten days
[15] = 62 g ai/ha, scale of 0 to 100 where 0 is no effect and 100 is complete control
[16] = 125 g ai/ha, scale 0 to 100, 0 is no effect, 100 is complete control
[17] = Postemergence, 500 g ai/ha, visual injury, 0 to 100 scale (0 no effect, 100 complete control), approx. ten days
[18] = Preemergence, 500 g ai/ha, 0 to 100 scale, 0 = no effect, 100 = complete control

COCCCn1c(-c2cccc(Cl)c2)ncc(C(=O)C2=C(O)CCCC2=O)c1=O [Compound 143]
90: Plant response rating, Barnyardgrass [1, 12] | Plant response rating, Barnyardgrass [1, 14] | Plant response rating, Crabgrass, Large [3, 12] | Plant response rating, Crabgrass, Large [3, 14] | Plant response rating, Morningglory [4, 11] | Plant response rating, Pigweed [5, 12] | Plant response rating, Pigweed [5, 14] | Plant response rating, Flood, Ducksalad [9]
60: Plant response rating, Foxtail, Giant [2, 11]
65: Plant response rating, Flood, Sedge, Umbrella [10]
80: Plant response rating, Foxtail, Giant [2, 12] | Plant response rating, Ducksalad [9, 15] | Plant response rating, Ducksalad [9, 16] | Ducksalad plant response rating [9]
0: Plant response rating, Corn (corn (Zea mays); [13]) | Plant response rating, Corn (corn (Zea mays); [14]) | Plant response rating, Wheat [7, 11] | Plant response rating, Wheat [7, 13] | Plant response rating, Wheat [7, 14] | Plant response rating, Barnyardgrass [8, 15] | Plant response rating, Barnyardgrass [8, 16] | Barnyardgrass plant response rating [8] | Plant response rating, Flood, Rice (rice (Oryza sativa)) | Plant response rating, Rice (rice (Oryza sativa); [15]) | Plant response rating, Rice (rice (Oryza sativa); [16]) | Rice plant response rating (rice (Oryza sativa)) | Plant response rating, Sedge, Umbrella [10, 15] | Plant response rating, Sedge, Umbrella [10, 16] | Sedge, Umbrella plant response rating [10]
100: Plant response rating, Morningglory [4, 12] | Plant response rating, Velvetleaf [6, 11] | Plant response rating, Velvetleaf [6, 12] | Plant response rating, Velvetleaf [6, 14]
50: Plant response rating, Crabgrass, Large [3, 13]
10: Plant response rating, Corn (corn (Zea mays); [11]) | Plant response rating, Foxtail, Giant [2, 13] | Plant response rating, Morningglory [4, 13] | Plant response rating, Wheat [7, 12]
20: Plant response rating, Corn (corn (Zea mays); [12]) | Plant response rating, Flood, Barnyardgrass [8]
40: Plant response rating, Barnyardgrass [1, 13]
70: Plant response rating, Barnyardgrass [1, 11] | Plant response rating, Foxtail, Giant [2, 14] | Plant response rating, Crabgrass, Large [3, 11] | Plant response rating, Morningglory [4, 14] | Plant response rating, Pigweed [5, 11] | Plant response rating, Pigweed [5, 13] | Plant response rating, Velvetleaf [6, 13]

O=C1CCCC(O)=C1C(=O)c1cnc(-c2ccccc2)n(C2CCCCCCC2)c1=O [Compound 215]
80: Foxtail, Giant plant response rating [2, 17]
15: Plant response rating, Flood, Rice (rice (Oryza sativa))
20: Plant response rating, Barnyardgrass [1, 18] | Plant response rating, Pigweed [5, 13]
60: Plant response rating, Crabgrass, Large [3, 18]
30: Corn plant response rating (corn (Zea mays); [17]) | Plant response rating, Foxtail, Giant [2, 18] | Plant response rating, Barnyardgrass [8, 16]
85: Plant response rating, Flood, Ducksalad [9] | Plant response rating, Ducksalad [9, 16]
0: Plant response rating, Barnyardgrass [1, 13] | Plant response rating, Corn (corn (Zea mays); [11]) | Plant response rating, Corn (corn (Zea mays); [13]) | Plant response rating, Corn (corn (Zea mays); [18]) | Plant response rating, Crabgrass, Large [3, 13] | Plant response rating, Morningglory [4, 13] | Plant response rating, Velvetleaf [6, 13] | Plant response rating, Wheat [7, 11] | Wheat plant response rating [7, 17] | Plant response rating, Wheat [7, 13] | Plant response rating, Wheat [7, 18] | Plant response rating, Barnyardgrass [8, 15] | Barnyardgrass plant response rating [8] | Plant response rating, Rice (rice (Oryza sativa); [15]) | Plant response rating, Rice (rice (Oryza sativa); [16]) | Rice plant response rating (rice (Oryza sativa)) | Plant response rating, Sedge, Umbrella [10, 15] | Sedge, Umbrella plant response rating [10]
90: Plant response rating, Barnyardgrass [1, 11] | Plant response rating, Pigweed [5, 11] | Plant response rating, Pigweed [5, 18] | Plant response rating, Flood, Sedge, Umbrella [10]
40: Plant response rating, Foxtail, Giant [2, 11] | Plant response rating, Crabgrass, Large [3, 11] | Plant response rating, Flood, Barnyardgrass [8]
70: Crabgrass, Large plant response rating [3, 17] | Plant response rating, Morningglory [4, 18] | Plant response rating, Velvetleaf [6, 18] | Ducksalad plant response rating [9]
100: Barnyardgrass plant response rating [1, 17] | Plant response rating, Morningglory [4, 11] | Morningglory plant response rating [4, 17] | Pigweed plant response rating [5, 17] | Plant response rating, Velvetleaf [6, 11] | Velvetleaf plant response rating [6, 17]
75: Plant response rating, Ducksalad [9, 15] | Plant response rating, Sedge, Umbrella [10, 16]
10: Plant response rating, Foxtail, Giant [2, 13]
